The record followed here is US20210196714A1, “COMPOSITIONS AND METHODS FOR TREATING DISORDERS CHARACTERIZED WITH ABERRANT RAS/MAPK SIGNALING” (Duke University, priority 2018, published 2021).

For assay [1], the system named is rap1- and kdm6a-depleted zebrafish. Put plainly: CE defects caused by loss of rap1 and kdm6a. The class given is in vivo. As to the method:
FIG. 4: Compound 8 ameliorates the CE and jaw defects caused by loss of rap/and kdm6a. (a) gRNA targeting both zebrafish rap1a and rap1b were injected into embryos at the 1-cell stage with Cas9 protein. Larvae were incubated with compound 8 (100 nM) at the 8-cell stage and scored for micrognathia. 5 dpf larvae were stained with Alcian blue to assess the layout of the jaw cartilage. In comparison to control embryos (top), rap1-CRISPR embryos have smaller jaws. […] (b) Quantitative measurement of the distance between MK and CH cartilages. (c) Larvae were scored for CE (n>30 for each concentration). (d) 5 dpf embryos were stained with Alcian blue to assess the layout of jaw cartilage. […] (e) Quantitative measurement of the distance between MK and CH cartilages. *p<0.05; ***p<0.001. […]
(§1) For convergence and extension (CE) phenotyping, embryos were scored as described (see, Leitch, C. C. et al. Nat Genet 40, 443-8 (2008)) at the 8-10 somite stage, and images were captured using an AZ100 microscope and NIS Elements software (Nikon). […] The distance between Meckel's (MK) and ceratohyal (CH) cartilages was measured on ventral bright field images with Image J (NIH). […] Fluorescence signal on embryo heads was imaged with the Nikon AZ100 microscope and DS-Qi1MC digital camera using […] Z-stacks to generate extended depth of focus images. Cell numbers were quantified using the ImageJ ICTN plugin (NIH). […]

A further assay deals with pMEK1/2. Put plainly: Western blot of pMEK1/2 in head lysate of 5 dpf embryos. Type of assay: in vivo, zebrafish. Particulars: 100 nM or 500 nM. As to the method:
FIG. 7: dmDf attenuates hyperactive MEK signaling in vivo. (a) Western blot analysis for the level of pMEK1/2 from the head lysate of 5 dpf zebrafish embryos. Depletion of kmt2d (lane 4) elevates the abundance of pMEK1/2 in comparison to control embryos (lane 1). […] (b) Summary of the relative levels of pMEK1/2 from three independent experiments. *p<0.05 (n=3). (c) kmt2d morphants were treated with serially increasing concentrations of dmDf. The embryos were scored for CE phenotypes as described earlier (n>25 for each concentration. (d) The distance between MK and CH cartilages was measured from the same embryos as in (c). *p<0.05; **p<0.01. Error bars show SEM (standard error of the mean).
The phenotypic rescue of the zebrafish KS models by dmDf predicts a successful attenuation of hyperactive MEK signaling. To test this hypothesis directly, experiments were conducted that suppressed kmt2d, harvested and pooled protein from embryo heads (n=20/condition) and measured the abundance of phosphorylated (activated) MEK1/2 (pMEK1/2).
Zebrafish larvae (5 dpf; n=20) were decapitated and heads were homogenized with RIPA buffer (50 mM NaCl, 1% NP40, 50 mM Tris-HCl pH 7.5, 0.1% SDS, 0.5% Na deoxycholate, 1 mM Na3VO4, and 1 mM NaF). […]
On the technique in general: In western blotting, separated proteins are transferred to a membrane and probed.

The subject of the next assay is kdm6a morphants. Put plainly: Brain cell proliferation (pHH3 immunostaining) in kdm6a morphants. Type of assay: in vivo, zebrafish. The note with it: 100 nM, 2 dpf, listed as dmDf.
Text: Intellectual disability represents a major phenotype in KS, with some studies reporting almost 90% of patients to be affected (see, Wessels, M. W., et al. Clin Dysmorphol 11, 95-102 (2002)). […] Previous studies have shown that defects in proliferation in the developing zebrafish brain can be a proxy for neurodevelopmental and neurocognitive traits, especially in the context of microcephaly (see, Borck, G. et al. Genome Res 25, 609 (2015); Brooks, S. S. et al. Genetics 198, 723-33 (2014); O'Rawe, J. A. et al. Am J Hum Genet 97, 922-32 (2015); Wortmann, S. B. et al. Am J Hum Genet 96, 245-57 (2015)), a phenotype reported commonly in KS (see, Matsumoto, N. & Niikawa, N. Am J Med Genet C Semin Med Genet 117C, 57-65 (2003)).
as §1

Assay [2] relates to zebrafish kmt2d morphants. Put plainly: Rescue of convergent-extension (CE) phenotype in kmt2d morphants. Type of assay: in vivo. Particulars: dose response.

“Also recorded” adds a separate entry of the source.

Regarding `CC(C)c1nc(-c2cccc(NS(=O)(=O)c3c(F)cccc3F)c2F)c(-c2ccnc(N)n2)s1` [Compound 8, desmethyl-Dabrafenib], the CE defects result in assay [1] is “ameliorates”. Besides, the “abundance of pMEK1/2” value in the assay with pMEK1/2 (kmt2d suppressed, 5 dpf heads, listed as dmDf) was “attenuates hyperactivation of MEK1/2; also recorded: restored the abundance of pMEK1/2 to levels indistinguishable from wild type embryos”; in the assay with pMEK1/2 (uninjected embryos), “neither concentration had an appreciable effect”. Besides, the “total number of proliferating (pHH3+) cells in brain” value in the assay with kdm6a morphants is on record as “significantly increases pHH3+ proliferating cells; also recorded: restored the total number of proliferating cells to wild type levels”. In addition, the “CE defects at 50 nM and 100 nM doses” value in assay [2] (50 and 100 nM) was “Significant rescue”. Besides, in assay [2] (above 100 nM up to 1 μM), the “CE rescue at dosages beyond 100 nM” value is listed as “higher dosages did not improve efficacy any further”.
